Results as given in ChEMBL document CHEMBL3286108, “Novel arylsulfonamide derivatives with 5-HT₆/5-HT₇ receptor antagonism targeting behavioral and psychological symptoms of dementia” (J Med Chem, 2014).
Activity calls are given as the source filed them. The rule behind the calls is not given here.

Experiments:
[1] = molecular target: Muscarinic acetylcholine receptor M5 (Homo sapiens, UniProt P08912); assay: Displacement of [3H]4-DAMP from human recombinant M5 receptor expressed in CHO cells; type: cell-based
[2] = molecular target: Muscarinic acetylcholine receptor M2 (Homo sapiens) (UniProt P08172); assay: Displacement of [3H]AF-DX384 from human recombinant M2 receptor expressed in CHO cells at 1 uM; type: cell-based
[3] = molecular target: Muscarinic acetylcholine receptor M4 (Homo sapiens) (UniProt P08173); assay: Displacement of [3H]4-DAMP from human recombinant M4 receptor expressed in CHO cells at 1 uM; type: cell-based
[4] = molecular target: T1, 5-hydroxytryptamine receptor 2A (Homo sapiens, UniProt P28223); assay: Antagonist activity at human recombinant 5-HT2A receptor assessed as inhibition of serotonin-induced inositol phosphate accumulation; type: functional
[5] = molecular target: Alpha-1A adrenergic receptor (Homo sapiens) (UniProt P35348); assay: Antagonist activity at human recombinant alpha1A adrenoceptor assessed as inhibition of epinephrine-induced intracellular Ca2+ release; type: functional, cell-based
Rattus norvegicus [6] = assay: Antipsychotic-like activity in po dosed Wistar rat assessed as inhibition of MK-801-induced hyperlocomotion administered 45 mins prior to MK-801 challenge measured 60 mins post-drug administration; type: functional; settings: read-out: MED
Rattus norvegicus [7] = assay: Antipsychotic-like activity in po dosed Wistar rat assessed as inhibition of DOI-induced head twitches measured after 60 mins; type: functional; settings: 1 h, read-out: MED
Rattus norvegicus [8] = assay: Antidepressant-like activity in Wistar rat assessed as decrease in immobility time at 0.3 to 3 mg/kg, po after 60 mins by forced swimming test; type: functional; settings: dose mg/kg 0.3-3
Rattus norvegicus [9] = assay: Induction of catalepsy in Wistar rat up to 100 mg/kg, po by bar test; type: organism-based; set-up: dose 100 mg/kg, route oral; settings: in vivo
Rattus norvegicus [10] = assay: Toxicity in Wistar rat assessed as spontaneous locomotor activity up to 100 mg/kg, po measured after 15 mins; type: organism-based; set-up: dose 100 mg/kg, route oral; settings: in vivo, 0.25 h
[11] = molecular target: T2, 5-hydroxytryptamine receptor 7 (Homo sapiens, UniProt P34969); assay: biochemical; type: cell-based, CHO-K1
[12] = molecular target: T1, 5-hydroxytryptamine receptor 2A; assay: biochemical; type: cell-based, CHO-K1
[13] = molecular target: T3, Muscarinic acetylcholine receptor M1 (Homo sapiens) (UniProt P11229); assay: Displacement of [3H]pirenzepine from human recombinant M1 receptor expressed in CHO cells at 1 uM; type: cell-based
T3 sequence (whole entry): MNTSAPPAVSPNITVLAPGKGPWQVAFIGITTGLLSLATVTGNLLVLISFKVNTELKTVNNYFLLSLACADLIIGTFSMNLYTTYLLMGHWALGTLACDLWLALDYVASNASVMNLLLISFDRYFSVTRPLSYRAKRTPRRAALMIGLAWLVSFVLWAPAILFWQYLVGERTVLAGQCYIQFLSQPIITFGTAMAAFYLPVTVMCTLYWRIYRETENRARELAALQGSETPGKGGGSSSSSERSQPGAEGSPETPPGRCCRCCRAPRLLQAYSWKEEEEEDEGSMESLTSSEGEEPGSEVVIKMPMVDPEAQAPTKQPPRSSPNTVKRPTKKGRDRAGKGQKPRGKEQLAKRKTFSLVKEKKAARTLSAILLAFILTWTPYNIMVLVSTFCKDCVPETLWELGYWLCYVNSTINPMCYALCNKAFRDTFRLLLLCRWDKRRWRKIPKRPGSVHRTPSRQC

[14] = molecular target: T4, 5-hydroxytryptamine receptor 6 (Homo sapiens, UniProt P50406); assay: Antagonist activity at human recombinant 5-HT6 receptor expressed in CHO-K1 cells assessed as inhibition of serotonin-induced response treated 15 to 30 mins before agonist challenge by luminescence analysis; type: cell-based
[15] = molecular target: T2, 5-hydroxytryptamine receptor 7; assay: Antagonist activity at human 5-HT7 receptor expressed in CHO-K1 cells assessed as inhibition of serotonin-induced cAMP accumulation after 60 mins by TR-FRET immunoassay; type: functional, cell-based
[16] = molecular target: T1, 5-hydroxytryptamine receptor 2A; assay: Antagonist activity at human recombinant 5-HT2A receptor expressed in CHO-K1 cells assessed as inhibition of alpha-methyl serotonin-induced response treated 15 to 30 mins before agonist challenge by luminescence analysis; type: cell-based
[17] = molecular target: T4, 5-hydroxytryptamine receptor 6; assay: Agonist activity at human recombinant 5-HT6 receptor expressed in CHO-K1 cells by luminescence analysis; type: cell-based
[18] = molecular target: T2, 5-hydroxytryptamine receptor 7; assay: Agonist activity at human 5-HT7 receptor expressed in CHO-K1 cells assessed as cAMP accumulation after 60 mins by TR-FRET immunoassay; type: functional, cell-based
[19] = molecular target: T1, 5-hydroxytryptamine receptor 2A; assay: Agonist activity at human recombinant 5-HT2A receptor expressed in CHO-K1 cells by luminescence analysis; type: cell-based
D(2) dopamine receptor [20] = molecular target: T5, D(2) dopamine receptor (Homo sapiens, UniProt P14416); assay: Agonist activity at human recombinant D2 receptor expressed in CHO-K1 cells by luminescence analysis; type: cell-based
D(3) dopamine receptor = D(3) dopamine receptor (Homo sapiens, UniProt P35462); assay: Displacement of [3H]methylspiperone from human recombinant D3 receptor expressed in CHO cells; type: cell-based
D(4) dopamine receptor = D(4) dopamine receptor (Homo sapiens, UniProt P21917); assay: Displacement of [3H]methylspiperone from human recombinant D4 receptor expressed in CHO cells; type: cell-based
Histamine H1 receptor = Histamine H1 receptor (Homo sapiens, UniProt P35367); assay: biochemical; type: cell-based, HEK293
[21] = molecular target: Muscarinic acetylcholine receptor M1 (Homo sapiens, UniProt P11229); assay: biochemical; type: cell-based, CHO
[22] = molecular target: T6, Muscarinic acetylcholine receptor M3 (Homo sapiens, UniProt P20309); settings: CHO, 1 uM
[23] = molecular target: Muscarinic acetylcholine receptor M5 (Homo sapiens) (UniProt P08912); settings: CHO, 1 uM
[24] = molecular target: T6, Muscarinic acetylcholine receptor M3; assay: biochemical
[25] = molecular target: Muscarinic acetylcholine receptor M4 (Homo sapiens, UniProt P08173); assay: biochemical
[26] = molecular target: Sodium-dependent serotonin transporter (Homo sapiens, UniProt P31645); assay: biochemical
[27] = molecular target: T4, 5-hydroxytryptamine receptor 6; assay: biochemical
D(2) dopamine receptor [28] = molecular target: T5, D(2) dopamine receptor; assay: biochemical
[29] = molecular target: T4, 5-hydroxytryptamine receptor 6; assay: biochemical; remark: listed apart in the source
[30] = molecular target: T2, 5-hydroxytryptamine receptor 7; assay: biochemical
[31] = molecular target: T1, 5-hydroxytryptamine receptor 2A; assay: biochemical
[32] = molecular target: 5-hydroxytryptamine receptor 1A (Homo sapiens, UniProt P08908); assay: biochemical
[33] = molecular target: 5-hydroxytryptamine receptor 2C (Homo sapiens, UniProt P28335); assay: biochemical
D(2) dopamine receptor [34] = molecular target: T5, D(2) dopamine receptor; assay: biochemical; remark: listed apart in the source
D(1A) dopamine receptor = D(1A) dopamine receptor (Homo sapiens, UniProt P21728); assay: biochemical
[35] = molecular target: Alpha-1A adrenergic receptor (Homo sapiens, UniProt P35348); assay: biochemical
[36] = molecular target: Alpha-2C adrenergic receptor (Homo sapiens, UniProt P18825); assay: biochemical
[37] = molecular target: Muscarinic acetylcholine receptor M2 (Homo sapiens, UniProt P08172); assay: biochemical
[38] = molecular target: T4, 5-hydroxytryptamine receptor 6

T1 sequence (P28223 whole entry): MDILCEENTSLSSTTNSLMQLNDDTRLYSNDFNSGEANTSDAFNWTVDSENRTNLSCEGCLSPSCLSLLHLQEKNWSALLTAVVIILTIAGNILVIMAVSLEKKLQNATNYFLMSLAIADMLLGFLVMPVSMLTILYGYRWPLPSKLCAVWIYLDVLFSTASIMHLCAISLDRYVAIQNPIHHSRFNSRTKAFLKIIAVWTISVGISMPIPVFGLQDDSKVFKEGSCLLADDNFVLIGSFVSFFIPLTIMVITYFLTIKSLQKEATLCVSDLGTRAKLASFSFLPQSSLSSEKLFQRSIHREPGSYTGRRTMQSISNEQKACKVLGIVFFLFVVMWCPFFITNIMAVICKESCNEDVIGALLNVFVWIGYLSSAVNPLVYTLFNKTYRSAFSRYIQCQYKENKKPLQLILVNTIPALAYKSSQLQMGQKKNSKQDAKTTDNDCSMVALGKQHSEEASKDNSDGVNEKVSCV
T4 sequence (P50406 whole entry): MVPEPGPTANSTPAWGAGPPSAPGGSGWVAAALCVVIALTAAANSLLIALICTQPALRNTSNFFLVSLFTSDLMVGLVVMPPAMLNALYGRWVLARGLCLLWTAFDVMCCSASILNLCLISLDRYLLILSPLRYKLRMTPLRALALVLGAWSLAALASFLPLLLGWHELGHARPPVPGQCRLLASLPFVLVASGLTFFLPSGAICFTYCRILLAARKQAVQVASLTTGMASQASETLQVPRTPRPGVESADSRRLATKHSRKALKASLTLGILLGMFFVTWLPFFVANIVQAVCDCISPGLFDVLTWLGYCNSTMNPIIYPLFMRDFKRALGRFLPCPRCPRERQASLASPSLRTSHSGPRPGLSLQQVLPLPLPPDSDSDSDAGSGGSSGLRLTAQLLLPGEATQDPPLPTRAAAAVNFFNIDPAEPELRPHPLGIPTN
T5 sequence (P14416 whole entry): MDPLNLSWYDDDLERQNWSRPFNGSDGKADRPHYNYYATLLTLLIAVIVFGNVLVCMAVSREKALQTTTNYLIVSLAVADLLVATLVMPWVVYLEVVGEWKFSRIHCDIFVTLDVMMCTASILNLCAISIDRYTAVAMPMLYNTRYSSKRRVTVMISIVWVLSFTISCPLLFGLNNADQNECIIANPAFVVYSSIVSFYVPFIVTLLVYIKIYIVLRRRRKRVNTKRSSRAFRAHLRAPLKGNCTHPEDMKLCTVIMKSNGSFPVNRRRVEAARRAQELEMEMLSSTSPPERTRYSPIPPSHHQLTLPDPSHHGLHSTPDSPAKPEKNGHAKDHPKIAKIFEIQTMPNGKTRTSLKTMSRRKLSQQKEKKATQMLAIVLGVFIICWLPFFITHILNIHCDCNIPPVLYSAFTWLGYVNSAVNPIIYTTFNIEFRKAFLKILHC
T2 sequence (P34969 whole entry): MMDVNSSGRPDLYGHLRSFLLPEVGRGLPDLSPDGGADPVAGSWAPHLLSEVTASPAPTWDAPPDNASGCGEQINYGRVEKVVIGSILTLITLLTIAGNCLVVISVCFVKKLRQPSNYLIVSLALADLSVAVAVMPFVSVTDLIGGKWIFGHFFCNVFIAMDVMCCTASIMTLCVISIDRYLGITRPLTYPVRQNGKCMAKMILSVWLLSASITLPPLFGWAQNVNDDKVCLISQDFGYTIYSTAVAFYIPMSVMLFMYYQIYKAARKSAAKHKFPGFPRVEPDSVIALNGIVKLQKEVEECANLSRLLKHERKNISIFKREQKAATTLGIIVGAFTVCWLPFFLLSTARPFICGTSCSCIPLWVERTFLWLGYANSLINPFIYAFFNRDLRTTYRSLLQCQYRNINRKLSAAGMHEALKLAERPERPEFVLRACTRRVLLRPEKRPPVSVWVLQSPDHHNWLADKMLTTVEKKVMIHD
Chain of Alpha-2C adrenergic receptor (P18825 whole entry): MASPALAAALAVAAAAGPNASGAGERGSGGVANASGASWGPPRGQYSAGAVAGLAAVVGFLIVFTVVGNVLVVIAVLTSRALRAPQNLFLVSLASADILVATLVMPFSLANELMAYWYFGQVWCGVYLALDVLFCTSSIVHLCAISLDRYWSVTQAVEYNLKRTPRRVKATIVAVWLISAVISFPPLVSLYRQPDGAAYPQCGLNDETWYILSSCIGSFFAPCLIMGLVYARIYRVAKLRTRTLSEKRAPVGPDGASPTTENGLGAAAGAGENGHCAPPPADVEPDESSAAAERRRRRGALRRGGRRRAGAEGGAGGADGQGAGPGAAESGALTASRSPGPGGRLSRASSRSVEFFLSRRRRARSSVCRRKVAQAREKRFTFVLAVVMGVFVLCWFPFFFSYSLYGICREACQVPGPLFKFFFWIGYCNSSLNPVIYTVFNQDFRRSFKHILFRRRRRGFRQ
Chain of D(4) dopamine receptor (P21917 whole entry): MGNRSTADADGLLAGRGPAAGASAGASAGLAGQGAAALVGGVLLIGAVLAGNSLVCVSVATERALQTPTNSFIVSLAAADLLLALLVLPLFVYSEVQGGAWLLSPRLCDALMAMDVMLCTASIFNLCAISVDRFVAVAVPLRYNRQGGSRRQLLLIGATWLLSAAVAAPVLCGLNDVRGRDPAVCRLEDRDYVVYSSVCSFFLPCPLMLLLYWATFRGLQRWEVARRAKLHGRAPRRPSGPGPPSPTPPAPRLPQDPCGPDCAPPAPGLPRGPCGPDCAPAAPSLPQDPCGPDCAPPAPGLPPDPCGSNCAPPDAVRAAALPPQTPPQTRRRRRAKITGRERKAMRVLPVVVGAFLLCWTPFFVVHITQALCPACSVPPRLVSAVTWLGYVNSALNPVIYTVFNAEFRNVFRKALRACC
Chain of 5-hydroxytryptamine receptor 1A (P08908 whole entry): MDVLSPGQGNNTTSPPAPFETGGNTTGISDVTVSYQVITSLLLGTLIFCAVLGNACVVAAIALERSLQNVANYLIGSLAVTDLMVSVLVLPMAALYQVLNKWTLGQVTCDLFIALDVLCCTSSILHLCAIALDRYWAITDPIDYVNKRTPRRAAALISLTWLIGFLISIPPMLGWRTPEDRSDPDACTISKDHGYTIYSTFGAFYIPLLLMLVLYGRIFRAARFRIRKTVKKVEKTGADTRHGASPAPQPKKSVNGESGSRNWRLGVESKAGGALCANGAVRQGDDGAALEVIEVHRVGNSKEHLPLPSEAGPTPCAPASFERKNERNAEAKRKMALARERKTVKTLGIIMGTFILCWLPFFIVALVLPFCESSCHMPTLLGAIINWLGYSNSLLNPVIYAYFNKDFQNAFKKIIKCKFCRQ
Chain of Sodium-dependent serotonin transporter (P31645 whole entry): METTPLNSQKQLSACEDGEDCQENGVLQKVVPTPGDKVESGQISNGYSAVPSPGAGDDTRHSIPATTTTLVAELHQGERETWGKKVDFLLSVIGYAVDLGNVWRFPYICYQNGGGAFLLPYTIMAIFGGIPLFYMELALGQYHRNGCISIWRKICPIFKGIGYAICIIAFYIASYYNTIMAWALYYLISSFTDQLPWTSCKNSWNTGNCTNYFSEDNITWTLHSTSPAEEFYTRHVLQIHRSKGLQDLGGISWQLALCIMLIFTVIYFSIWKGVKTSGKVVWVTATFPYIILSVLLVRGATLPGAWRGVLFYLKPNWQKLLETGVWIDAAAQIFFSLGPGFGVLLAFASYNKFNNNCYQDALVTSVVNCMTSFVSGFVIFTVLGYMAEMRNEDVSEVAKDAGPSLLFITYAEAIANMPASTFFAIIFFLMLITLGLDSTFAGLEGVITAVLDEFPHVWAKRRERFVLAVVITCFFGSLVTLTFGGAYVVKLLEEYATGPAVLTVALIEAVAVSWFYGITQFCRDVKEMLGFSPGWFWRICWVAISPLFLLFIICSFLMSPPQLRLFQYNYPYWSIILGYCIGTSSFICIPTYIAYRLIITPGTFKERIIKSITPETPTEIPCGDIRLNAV
Chain of Muscarinic acetylcholine receptor M4 (P08173 whole entry): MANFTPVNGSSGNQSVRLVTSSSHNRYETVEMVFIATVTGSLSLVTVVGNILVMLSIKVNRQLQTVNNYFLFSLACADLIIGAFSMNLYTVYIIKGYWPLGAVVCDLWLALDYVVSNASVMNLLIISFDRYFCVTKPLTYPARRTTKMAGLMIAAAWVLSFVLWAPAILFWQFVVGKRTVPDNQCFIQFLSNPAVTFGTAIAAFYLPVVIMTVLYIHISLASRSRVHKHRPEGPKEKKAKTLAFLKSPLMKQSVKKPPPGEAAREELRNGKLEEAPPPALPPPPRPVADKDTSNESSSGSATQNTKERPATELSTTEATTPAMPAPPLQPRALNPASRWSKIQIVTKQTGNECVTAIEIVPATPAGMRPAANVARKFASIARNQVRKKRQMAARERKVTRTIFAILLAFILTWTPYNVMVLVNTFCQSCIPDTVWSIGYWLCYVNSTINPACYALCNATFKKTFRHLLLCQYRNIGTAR
Chain of Muscarinic acetylcholine receptor M4 (Homo sapiens) (P08173 whole entry): as above
Chain of 5-hydroxytryptamine receptor 2C (P28335 whole entry): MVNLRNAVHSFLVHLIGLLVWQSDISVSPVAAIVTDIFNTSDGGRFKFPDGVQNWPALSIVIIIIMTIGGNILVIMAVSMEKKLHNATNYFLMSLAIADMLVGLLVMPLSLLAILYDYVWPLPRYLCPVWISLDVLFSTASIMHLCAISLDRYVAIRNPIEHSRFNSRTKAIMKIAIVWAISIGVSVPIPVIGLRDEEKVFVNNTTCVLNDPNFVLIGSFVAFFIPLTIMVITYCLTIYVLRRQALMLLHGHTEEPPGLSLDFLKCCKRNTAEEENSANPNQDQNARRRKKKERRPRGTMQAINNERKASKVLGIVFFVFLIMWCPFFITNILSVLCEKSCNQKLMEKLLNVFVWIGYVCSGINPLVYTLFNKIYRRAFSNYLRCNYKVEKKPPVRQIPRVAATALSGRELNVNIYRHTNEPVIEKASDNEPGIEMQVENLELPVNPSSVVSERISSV

O=S(=O)(NCCCCN1CCC(c2noc3cc(F)ccc23)CC1)c1cc2ccccc2s1
Ki [1]: > 1000 nM
inhibition [2]: < 40%
inhibition [3]: < 40%
Kb [4]: 4.8 nM
Kb [5]: 1.8 nM
minimal effective dose (Rattus norvegicus [6]): 10 mg/kg
minimal effective dose (Rattus norvegicus [7]): 3 mg/kg
inhibition (INH) (Rattus norvegicus [8]): 20%
Activity (Rattus norvegicus [9]): Non-toxic
Activity (Rattus norvegicus [10]): Non-toxic
Ki [11]: 1.6 nM
Ki [12]: 0.6 nM
inhibition [13]: 21%
Kb [14]: 9.9 nM
Kb [15]: 7.8 nM
Kb [16]: 8.8 nM
Activity [17]: inactive
Activity [18]: inactive
Activity [19]: inactive
Activity (D(2) dopamine receptor [20]): inactive
Ki (D(3) dopamine receptor): 1.1 nM
Ki (D(4) dopamine receptor): 14 nM
Ki (Histamine H1 receptor): 69 nM
Ki [21]: > 1000 nM
inhibition [22]: < 40%
inhibition [23]: < 40%
Ki [24]: > 1000 nM
Ki [25]: > 1000 nM
IC50 [26]: > 1000 nM
Ki [27]: 6.5 nM
Ki (D(2) dopamine receptor [28]): 2 nM
Ki [29]: 4.1 nM
Ki [30]: 1.9 nM
Ki [31]: 0.5 nM
Ki [32]: 110 nM
Ki [33]: 540 nM
Ki (D(2) dopamine receptor [34]): 1.8 nM
Ki (D(1A) dopamine receptor): 3.3 nM
Ki [35]: 0.8 nM
Ki [36]: 1.9 nM
Ki [37]: > 1000 nM
Kb [38]: 16 nM
